Patent EP3263567A1, “CARBOXAMIDE-SUBSTITUTED PYRAZOLES AND TRI(HETERO)ARYL-PYRAZOLES FOR USE IN METHODS OF TREATING AND / OR PREVENTING CARDIOVASCULAR DISEASES AND / OR COMORBIDITIES THEREOF” (AiCuris Anti-infective Cures GmbH, priority 2016, dated 2018)

Key:
Nav1.5 = biological target: T1, Nav1.5 (Homo sapiens, UniProt Q14524); assay: Whole-cell patch-clamp, Nav1.5 currents in stably transfected CHO cells; assay type: cell-based
T1 construct: expressed in transfected cells; host or cells: CHO (ATCC CCL-61), stably transfected; selection with Geneticin and Puromycin
Method: (§1) [drawing 92] i.e. 4-[5-[3-Chloro-5-(trifluoromethoxy) phenyl]-1-(pyridin-3-yl)-1H-pyrazol-3-yl]-5,6-dihydro-7H-pyrrolo[3,4-d]pyrimidin-7-one, was tested for its effects on human Nav1.5, Cav1.2, Kv1.5, and HCN4 currents recorded from stably transfected CHO cells. The effect of four concentrations of this compound on these currents was investigated.
(§2) The whole-cell patch-clamp technique was used to investigate the effect of Compound A on the currents of Nav1.5, Kv1.5, Cav1.2 and HCN4 channels, expressed in CHO cells (ATCC, CCL-61). Compound A was tested at concentrations of 200 nM, 600 nM, 2000 nM and 6000 nM. For all ion channels 0.1% DMSO was used as vehicle and ZD7288 as suitable blockers were applied to assure accuracy of the method. The selection antibiotics can be dervied from the Table below:
(§3) Concentrations of 200 nM, 600 nM, 2000 nM and 6000 nM of Compound A were tested. […]
(§4) The 35 mm culture dishes upon which cells were seeded at a density allowing single cells to be recorded were placed on the dish holder of the microscope and continuously perfused (at approximately 1 mL/min) with the bath solution described in section 4.7. […]
(§5) As soon as a stable seal could be established outward tail currents were measured upon pulses described in the Table below: […]
(§6) Values in Ampere (A) of the peak amplitudes of outward tail currents were generated for each voltage step. […] The recorded current amplitudes at the steady state level of current inhibition were compared to those from control conditions measured in the pre-treatment phase of the same cell. The amount of current block was calculated as percentage of control. To determine whether the observed current inhibition was due to Compound A-interaction with the respective ion channel or due to current rundown, these residual currents were compared to those measured in vehicle treated cells. Data from at least two individual experiments were collected and the corresponding mean values and standard deviations were calculated. […]

Kv1.5 = biological target: T2, Kv1.5 (Homo sapiens, UniProt P22460); assay: Whole-cell patch-clamp, Kv1.5 currents in stably transfected CHO cells; assay type: cell-based; settings: summary statement
T2 construct: expressed in transfected cells; host or cells: CHO (ATCC CCL-61), stably transfected; selection with Hygromycin
Method: as §1
The whole-cell patch-clamp technique was used to investigate the effect of Compound A on the currents of Nav1.5, Kv1.5, Cav1.2 and HCN4 channels, expressed in CHO cells (ATCC, CCL-61). Compound A was tested at concentrations of 200 nM, 600 nM, 2000 nM and 6000 nM. […]
as §4, §5
Values in Ampere (A) of the peak amplitudes of outward tail currents were generated for each voltage step. […] The recorded current amplitudes at the steady state level of current inhibition were compared to those from control conditions measured in the pre-treatment phase of the same cell. The amount of current block was calculated as percentage of control. […]

in vivo = settings: both, Beagle, dog, po, 30 mg/kg
Method: A single oral dose of 30 or 100 mg/kg was applied to dogs. Pharmacokinetic parameters were assessed and compared.
Male and female Beagle dogs.
Plasma concentrations were obtained by LC-MS/MS measurements.

HCN4 = biological target: T3, HCN4 (Homo sapiens, UniProt Q9Y3Q4); assay: Whole-cell patch-clamp, HCN4 currents in stably transfected CHO cells; assay type: cell-based; design: expressed in transfected cells; host or cells: CHO (ATCC CCL-61), stably transfected; selection with Hygromycin and Geneticin
T3 sequence (Q9Y3Q4 1-1203): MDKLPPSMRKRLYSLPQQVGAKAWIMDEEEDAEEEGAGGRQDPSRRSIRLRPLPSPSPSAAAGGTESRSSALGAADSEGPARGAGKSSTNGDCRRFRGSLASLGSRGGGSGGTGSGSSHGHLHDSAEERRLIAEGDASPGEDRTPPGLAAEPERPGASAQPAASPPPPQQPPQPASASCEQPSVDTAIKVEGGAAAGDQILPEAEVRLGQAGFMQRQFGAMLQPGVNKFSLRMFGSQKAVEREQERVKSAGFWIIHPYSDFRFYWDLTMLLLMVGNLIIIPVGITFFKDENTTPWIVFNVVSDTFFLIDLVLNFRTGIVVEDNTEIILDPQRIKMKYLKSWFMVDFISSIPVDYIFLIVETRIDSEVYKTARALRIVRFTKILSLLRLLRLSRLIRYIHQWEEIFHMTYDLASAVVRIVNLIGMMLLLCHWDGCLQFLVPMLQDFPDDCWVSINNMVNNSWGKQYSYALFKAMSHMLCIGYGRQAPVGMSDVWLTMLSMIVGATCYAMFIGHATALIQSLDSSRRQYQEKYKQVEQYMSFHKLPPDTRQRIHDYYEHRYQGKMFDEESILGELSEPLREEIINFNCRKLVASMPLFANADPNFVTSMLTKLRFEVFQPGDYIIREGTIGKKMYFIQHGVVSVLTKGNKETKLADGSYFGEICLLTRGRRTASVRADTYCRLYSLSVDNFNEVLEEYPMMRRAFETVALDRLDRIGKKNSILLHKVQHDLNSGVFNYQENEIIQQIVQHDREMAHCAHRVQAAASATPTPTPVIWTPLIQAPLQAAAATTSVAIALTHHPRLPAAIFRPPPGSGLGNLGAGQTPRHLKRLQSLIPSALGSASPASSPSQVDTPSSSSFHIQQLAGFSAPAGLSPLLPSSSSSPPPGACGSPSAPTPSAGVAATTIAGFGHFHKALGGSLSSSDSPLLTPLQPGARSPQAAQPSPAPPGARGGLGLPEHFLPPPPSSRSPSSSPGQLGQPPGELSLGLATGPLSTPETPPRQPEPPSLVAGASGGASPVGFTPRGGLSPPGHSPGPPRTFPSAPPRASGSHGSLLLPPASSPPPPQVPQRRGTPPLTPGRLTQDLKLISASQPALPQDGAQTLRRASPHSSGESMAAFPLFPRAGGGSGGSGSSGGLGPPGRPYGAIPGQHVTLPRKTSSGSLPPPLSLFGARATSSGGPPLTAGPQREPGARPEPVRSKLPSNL
Method: as §1, §2, §3, §4, §5, §6

T1 sequence (Q14524 whole entry): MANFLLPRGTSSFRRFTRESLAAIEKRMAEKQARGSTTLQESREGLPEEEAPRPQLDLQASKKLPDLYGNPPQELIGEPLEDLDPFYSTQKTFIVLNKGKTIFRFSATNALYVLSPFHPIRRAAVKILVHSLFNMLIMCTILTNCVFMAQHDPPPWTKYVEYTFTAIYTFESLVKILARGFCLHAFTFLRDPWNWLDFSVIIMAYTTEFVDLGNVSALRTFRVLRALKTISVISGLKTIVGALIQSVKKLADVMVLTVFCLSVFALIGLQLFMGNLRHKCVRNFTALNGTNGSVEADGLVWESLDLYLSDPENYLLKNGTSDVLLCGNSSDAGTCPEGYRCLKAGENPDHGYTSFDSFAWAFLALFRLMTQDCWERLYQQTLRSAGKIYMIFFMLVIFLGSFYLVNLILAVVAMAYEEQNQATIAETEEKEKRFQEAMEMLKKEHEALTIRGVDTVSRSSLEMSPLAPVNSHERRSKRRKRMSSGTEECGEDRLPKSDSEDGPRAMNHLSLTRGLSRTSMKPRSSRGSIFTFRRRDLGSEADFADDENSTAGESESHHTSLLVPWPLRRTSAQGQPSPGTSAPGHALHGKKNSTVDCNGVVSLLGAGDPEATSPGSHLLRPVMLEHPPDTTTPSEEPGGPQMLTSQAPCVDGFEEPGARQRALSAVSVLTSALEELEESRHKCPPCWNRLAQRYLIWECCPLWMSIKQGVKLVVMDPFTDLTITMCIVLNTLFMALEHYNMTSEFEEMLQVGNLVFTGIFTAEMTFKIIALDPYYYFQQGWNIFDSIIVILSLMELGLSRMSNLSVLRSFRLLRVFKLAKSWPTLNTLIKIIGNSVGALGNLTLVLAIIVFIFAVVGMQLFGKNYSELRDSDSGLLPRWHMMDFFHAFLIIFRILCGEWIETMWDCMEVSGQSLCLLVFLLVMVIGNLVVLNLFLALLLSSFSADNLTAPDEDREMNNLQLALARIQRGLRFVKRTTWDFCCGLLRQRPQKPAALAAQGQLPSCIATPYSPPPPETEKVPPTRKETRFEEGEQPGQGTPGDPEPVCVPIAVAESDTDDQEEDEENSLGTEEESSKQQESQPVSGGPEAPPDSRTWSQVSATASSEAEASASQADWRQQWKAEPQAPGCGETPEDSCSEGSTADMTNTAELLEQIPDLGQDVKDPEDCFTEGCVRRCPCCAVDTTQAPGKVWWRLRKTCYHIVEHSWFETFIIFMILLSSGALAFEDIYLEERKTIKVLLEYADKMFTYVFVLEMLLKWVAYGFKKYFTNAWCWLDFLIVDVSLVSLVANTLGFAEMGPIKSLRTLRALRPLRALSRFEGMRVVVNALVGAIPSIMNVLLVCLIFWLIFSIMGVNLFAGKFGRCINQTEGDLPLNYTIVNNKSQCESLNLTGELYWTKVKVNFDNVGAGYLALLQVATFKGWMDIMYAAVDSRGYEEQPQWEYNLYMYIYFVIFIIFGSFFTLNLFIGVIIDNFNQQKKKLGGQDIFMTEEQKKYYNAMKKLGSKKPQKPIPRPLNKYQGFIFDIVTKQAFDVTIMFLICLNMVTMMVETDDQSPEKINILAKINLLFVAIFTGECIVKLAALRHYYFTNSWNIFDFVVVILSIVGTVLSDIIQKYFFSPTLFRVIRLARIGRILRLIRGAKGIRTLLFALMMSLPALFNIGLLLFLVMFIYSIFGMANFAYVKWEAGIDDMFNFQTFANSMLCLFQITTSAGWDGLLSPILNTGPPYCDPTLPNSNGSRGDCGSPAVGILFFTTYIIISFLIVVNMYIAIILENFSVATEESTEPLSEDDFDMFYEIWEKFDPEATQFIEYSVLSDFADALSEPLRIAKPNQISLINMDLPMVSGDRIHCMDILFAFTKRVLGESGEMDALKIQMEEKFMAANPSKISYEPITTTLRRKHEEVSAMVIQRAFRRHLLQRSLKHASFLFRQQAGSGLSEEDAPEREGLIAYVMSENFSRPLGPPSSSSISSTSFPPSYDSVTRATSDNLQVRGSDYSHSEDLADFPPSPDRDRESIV
T2 sequence (P22460 whole entry): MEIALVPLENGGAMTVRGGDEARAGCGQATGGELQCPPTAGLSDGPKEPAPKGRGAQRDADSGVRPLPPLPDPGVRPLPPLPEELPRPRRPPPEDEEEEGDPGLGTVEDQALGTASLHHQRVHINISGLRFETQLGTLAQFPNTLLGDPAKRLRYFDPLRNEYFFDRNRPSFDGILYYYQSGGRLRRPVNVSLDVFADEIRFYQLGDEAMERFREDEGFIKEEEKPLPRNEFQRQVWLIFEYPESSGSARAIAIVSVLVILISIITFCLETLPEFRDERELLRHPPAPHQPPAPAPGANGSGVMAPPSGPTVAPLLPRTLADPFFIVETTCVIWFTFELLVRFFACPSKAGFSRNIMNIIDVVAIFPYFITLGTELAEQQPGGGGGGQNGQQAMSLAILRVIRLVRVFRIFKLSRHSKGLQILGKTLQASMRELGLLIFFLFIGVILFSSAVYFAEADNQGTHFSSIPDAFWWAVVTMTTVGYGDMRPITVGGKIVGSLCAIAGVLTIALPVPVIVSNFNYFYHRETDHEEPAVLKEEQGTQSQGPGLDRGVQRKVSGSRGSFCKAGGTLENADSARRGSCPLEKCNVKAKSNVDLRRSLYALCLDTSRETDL

O=C1NCc2c1ncnc2-c1cc(-c2cc(Cl)cc(OC(F)(F)F)c2)n(-c2cccnc2)n1 [Compound A, 4-[5-[3-Chloro-5-(trifluoromethoxy)phenyl]-1-(pyridin-3-yl)-1H-pyrazol-3-yl]-5,6-dihydro-7H-pyrrolo[3,4-d]pyrimidin-7-one]
reduction of the current amplitude (Nav1.5, fast inactivated state) (Nav1.5; at ≤ 6 µM): more than 30% | IC50 (Nav1.5; highest concentration tested 6,000 nM, read-out: IC50 (Nav1.5, fast inactivated state)): > 6000 nM | interaction with ion channels of Nav (Nav1.5; summary statement): do not interact with other ion channels of Nav, Kav, and Cav substantially | interaction with ion channels of Kav (Kv1.5): do not interact with other ion channels of Nav, Kav, and Cav substantially | AUC(0-inf) (in vivo): 297 µg·h/mL | reduction of the current amplitude (HCN4) (HCN4; at ≤ 6 µM): more than 30% | Hill coefficient (HCN4) (HCN4; stably transfected CHO cells): 1.15 | IC50 (HCN4; stably transfected CHO cells, 200, 600, 2000, 6000 nM tested): 879 nM
